Three compounds from paper PMC11066040, “Nuclear phosphoinositide signaling promotes YAP/TAZ-TEAD transcriptional activity in breast cancer” (The EMBO Journal, 2024) can be followed below.

The structures appear in SMILES notation.

The target of test [1] is T1, GST-YAP (Homo sapiens, UniProt P46937).
T1 construct: gene YAP1
The experiment in a line: microscale thermophoresis. The test is classed as binding. (Microscale thermophoresis detects binding through changes in fluorescence in a small temperature gradient.)

For test [2], the target named is T1, GST-YAP. Kind of test: microscale thermophoresis. Format: binding. The following applies: pH 8.0, 50 mM NaCl, 80 mM KCl, 0.05% Tween-20; fluorescently labeled GST-YAP.

T1 sequence (P46937 whole entry): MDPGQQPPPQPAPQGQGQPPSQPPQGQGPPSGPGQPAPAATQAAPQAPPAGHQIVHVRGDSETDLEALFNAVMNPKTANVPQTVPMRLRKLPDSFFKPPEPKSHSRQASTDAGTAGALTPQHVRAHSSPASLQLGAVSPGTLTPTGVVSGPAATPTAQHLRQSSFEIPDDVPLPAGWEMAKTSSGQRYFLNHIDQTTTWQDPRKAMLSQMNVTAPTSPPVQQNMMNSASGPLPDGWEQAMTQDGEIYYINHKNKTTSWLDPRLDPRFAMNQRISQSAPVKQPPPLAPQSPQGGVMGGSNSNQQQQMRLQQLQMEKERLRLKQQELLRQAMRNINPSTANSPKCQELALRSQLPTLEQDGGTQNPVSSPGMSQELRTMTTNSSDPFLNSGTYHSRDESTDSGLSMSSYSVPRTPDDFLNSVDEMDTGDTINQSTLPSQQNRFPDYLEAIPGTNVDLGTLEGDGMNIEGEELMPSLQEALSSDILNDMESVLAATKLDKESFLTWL

The compound `CCCCC/C=C\C/C=C\C/C=C\C/C=C\CCCC(=O)O[C@H](COC(=O)CCCCCCCCCCCCCCCCC)COP(=O)(O)O[C@H]1[C@H](O)[C@@H](OP(=O)(O)O)[C@H](OP(=O)(O)O)[C@@H](OP(=O)(O)O)[C@H]1O` [PI(3,4,5)P3] had a Kd on GST-YAP [1] of 8.13 ± 2.63 nM.

Take `CCCCC/C=C\C/C=C\C/C=C\C/C=C\CCCC(=O)O[C@H](COC(=O)CCCCCCCCCCCCCCCCC)COP(=O)(O)O[C@@H]1[C@H](O)[C@H](O)[C@@H](O)[C@H](O)[C@H]1O` [PI]: the binding result on GST-YAP [2] is “No significant binding of GST-YAP with PI was detected”.

`CCCCC/C=C\C/C=C\C/C=C\C/C=C\CCCC(=O)O[C@H](COC(=O)CCCCCCCCCCCCCCCCC)COP(=O)(O)O[C@@H]1[C@H](O)[C@H](O)[C@@H](OP(=O)(O)O)[C@H](OP(=O)(O)O)[C@H]1O` [PI(4,5)P2] had a Kd at GST-YAP [1] of 166 ± 13.5 nM.

What is called Kd is the constant that tells how readily two partners part at equilibrium.
